# Publication PMC7565406, “BMS-599626, a Highly Selective Pan-HER Kinase Inhibitor, Antagonizes ABCG2-Mediated Drug Resistance” (Cancers, 2020)
# Legend:
# ABCG2 [1] = target: T1, ABCG2 (Homo sapiens, UniProt Q9UNQ0); test: vanadate-sensitive ATPase assay in ABCG2 membrane vesicles; supported by [3H]-mitoxantrone accumulation and efflux in cells; assay type: biochemical; design: membrane vesicles prepared from ABCG2 expressing High-five insect cells
# T1 sequence (Q9UNQ0 1-655): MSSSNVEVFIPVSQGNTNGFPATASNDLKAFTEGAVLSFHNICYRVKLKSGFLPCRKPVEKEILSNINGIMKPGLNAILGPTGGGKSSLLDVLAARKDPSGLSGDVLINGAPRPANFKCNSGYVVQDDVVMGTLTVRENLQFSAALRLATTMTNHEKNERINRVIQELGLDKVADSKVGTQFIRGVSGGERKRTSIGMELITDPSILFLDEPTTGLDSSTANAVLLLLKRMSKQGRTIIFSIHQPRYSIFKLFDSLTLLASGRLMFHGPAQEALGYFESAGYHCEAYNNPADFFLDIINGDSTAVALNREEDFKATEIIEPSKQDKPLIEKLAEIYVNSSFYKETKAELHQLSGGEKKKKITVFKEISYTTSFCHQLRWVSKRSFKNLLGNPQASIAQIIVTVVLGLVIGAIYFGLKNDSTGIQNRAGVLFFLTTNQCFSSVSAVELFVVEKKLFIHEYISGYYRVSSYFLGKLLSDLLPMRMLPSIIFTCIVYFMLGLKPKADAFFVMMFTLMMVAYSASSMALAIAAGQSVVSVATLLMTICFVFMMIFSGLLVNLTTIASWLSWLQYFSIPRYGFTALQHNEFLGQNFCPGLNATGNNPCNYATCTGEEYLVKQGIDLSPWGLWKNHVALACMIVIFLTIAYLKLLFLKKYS
# ABCG2 [2] = target: T1, ABCG2; test: radiolabelled drug efflux in ABCG2-overexpressing versus parental cells; assay type: cell-based; design: wild-type ABCG2 (R482) in HEK293 cells; NCI-H460/MX20 cells
SMILES,vanadate-sensitive ATPase assay in ABCG2 membrane vesicles; supported by [3H]-mi (ABCG2 [1]),radiolabelled drug efflux in ABCG2-overexpressing versus parental cells (ABCG2 [2])
"Cc1c(NC(=O)OC[C@@H]2COCCN2)cn2ncnc(Nc3ccc4c(cnn4Cc4cccc(F)c4)c3)c12 [BMS-599626, [4-[[1-(3-fluorophenyl)methyl]-1H-indazol5-ylamino]-5-methylpyrrolo [2,1-f][1,2,4]triazin6-yl]carbamic acid, (3S)-3-morpholinylmethyl ester]",7.6 fold inhibition of ATPase activity at 3 µM,
O=C1c2c(O)ccc(O)c2C(=O)c2c(NCCNCCO)ccc(NCCNCCO)c21 [mitoxantrone],,ABCG2-overexpressing cell lines showed a significantly higher efflux activity compared to parental cell lines
